Source: the supplement of paper PMC4862054

Test system: BT-549
Assay: normalised response (% of control), CellTiter-Glo; higher = more viable cells (100 = DMSO, 0 = benzethonium chloride kill control)
Conditions: incubation time: 72 h
Method: (§1)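 DSRT, 72 h incubation, CellTox Green / CellTiter-Glo readout. Signal is normalised to DMSO and benzethonium chloride controls. Value is the normalised response at dose 3.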

| SMILES | normalised response [%] |
| --- | --- |
| NC(=O)Nc1cc(-c2cccc(F)c2)sc1C(=O)N[C@H]1CCCNC1 [AZD7762] (10 nM) | 101 |
| CO[C@H]1/C=C\C=C(/C)C(=O)NC2=CC(=O)C(NCCN(C)C)=C(C[C@@H](C)C[C@H](OC)[C@H](O)[C@@H](C)/C=C(\C)[C@@H]1OC(N)=O)C2=O [Alvespimycin] (10 nM) | 63.4 |

Test system: MDA-MB-453
Assay: as above
Conditions: incubation time: 72 h
Method: as §1

| SMILES | normalised response [%] |
| --- | --- |
| CC(C)Cn1cnc2c(N)nc3ccccc3c21 [Imiquimod] (25 nM) | 97.4 |
| Cc1ccc(C(=O)N(CCCN)[C@@H](c2oc3cc(Cl)ccc3c(=O)c2Cc2ccccc2)C(C)C)cc1 (1 nM) | 91.4 |
| Clc1ccc(Nc2nnc(Cc3ccncc3)c3ccccc23)cc1 [Vatalanib] (100 nM) | 106 |
| Cc1ccc(C(=O)Nc2ccc(CN3CCN(C)CC3)c(C(F)(F)F)c2)cc1C#Cc1cnc2cccnn12 [Ponatinib] (10 nM) | 105 |
| N.N.[Cl][Pt][Cl] [Cisplatin] (10 nM) | 90.5 |
| COc1cc([C@@H]2c3cc4c(cc3[C@@H](O[C@@H]3O[C@@H]5CO[C@@H](C)O[C@H]5[C@H](O)[C@H]3O)[C@H]3COC(=O)[C@H]23)OCO4)cc(OC)c1O [Etoposide] (100 nM) | 113 |
| COc1cc2ncnc(Nc3ccc(F)c(Cl)c3)c2cc1NC(=O)/C=C/CN1CCCCC1 [Dacomitinib] (10 nM) | 96 |
| NC(=O)Nc1cc(-c2cccc(F)c2)sc1C(=O)N[C@H]1CCCNC1 [AZD7762] (10 nM) | 81.9 |
| CO[C@H]1/C=C\C=C(/C)C(=O)NC2=CC(=O)C(NCCN(C)C)=C(C[C@@H](C)C[C@H](OC)[C@H](O)[C@@H](C)/C=C(\C)[C@@H]1OC(N)=O)C2=O [Alvespimycin] (10 nM) | 89.1 |

Test system: Hs578T
Assay: as above
Conditions: incubation time: 72 h
Method: as §1

| SMILES | normalised response [%] |
| --- | --- |
| CC(C)Cn1cnc2c(N)nc3ccccc3c21 [Imiquimod] (25 nM) | 107 |
| Cc1ccc(C(=O)N(CCCN)[C@@H](c2oc3cc(Cl)ccc3c(=O)c2Cc2ccccc2)C(C)C)cc1 (1 nM) | 94.8 |
| Clc1ccc(Nc2nnc(Cc3ccncc3)c3ccccc23)cc1 [Vatalanib] (100 nM) | 106 |
| Cc1ccc(C(=O)Nc2ccc(CN3CCN(C)CC3)c(C(F)(F)F)c2)cc1C#Cc1cnc2cccnn12 [Ponatinib] (10 nM) | 99.1 |
| N.N.[Cl][Pt][Cl] [Cisplatin] (10 nM) | 96.4 |
| COc1cc([C@@H]2c3cc4c(cc3[C@@H](O[C@@H]3O[C@@H]5CO[C@@H](C)O[C@H]5[C@H](O)[C@H]3O)[C@H]3COC(=O)[C@H]23)OCO4)cc(OC)c1O [Etoposide] (100 nM) | 111 |
| COc1cc2ncnc(Nc3ccc(F)c(Cl)c3)c2cc1NC(=O)/C=C/CN1CCCCC1 [Dacomitinib] (10 nM) | 108 |
| NC(=O)Nc1cc(-c2cccc(F)c2)sc1C(=O)N[C@H]1CCCNC1 [AZD7762] (10 nM) | 94.5 |
| CO[C@H]1/C=C\C=C(/C)C(=O)NC2=CC(=O)C(NCCN(C)C)=C(C[C@@H](C)C[C@H](OC)[C@H](O)[C@@H](C)/C=C(\C)[C@@H]1OC(N)=O)C2=O [Alvespimycin] (10 nM) | 103 |

Test system: MCF-10A
Assay: as above
Conditions: incubation time: 72 h
Method: as §1

| SMILES | normalised response [%] |
| --- | --- |
| CC(C)Cn1cnc2c(N)nc3ccccc3c21 [Imiquimod] (25 nM) | 103 |
| Cc1ccc(C(=O)N(CCCN)[C@@H](c2oc3cc(Cl)ccc3c(=O)c2Cc2ccccc2)C(C)C)cc1 (1 nM) | 97 |
| Clc1ccc(Nc2nnc(Cc3ccncc3)c3ccccc23)cc1 [Vatalanib] (100 nM) | 111 |
| Cc1ccc(C(=O)Nc2ccc(CN3CCN(C)CC3)c(C(F)(F)F)c2)cc1C#Cc1cnc2cccnn12 [Ponatinib] (10 nM) | 111 |
| N.N.[Cl][Pt][Cl] [Cisplatin] (10 nM) | 106 |
| COc1cc([C@@H]2c3cc4c(cc3[C@@H](O[C@@H]3O[C@@H]5CO[C@@H](C)O[C@H]5[C@H](O)[C@H]3O)[C@H]3COC(=O)[C@H]23)OCO4)cc(OC)c1O [Etoposide] (100 nM) | 106 |
| COc1cc2ncnc(Nc3ccc(F)c(Cl)c3)c2cc1NC(=O)/C=C/CN1CCCCC1 [Dacomitinib] (10 nM) | 56.4 |
| NC(=O)Nc1cc(-c2cccc(F)c2)sc1C(=O)N[C@H]1CCCNC1 [AZD7762] (10 nM) | 99.5 |
| CO[C@H]1/C=C\C=C(/C)C(=O)NC2=CC(=O)C(NCCN(C)C)=C(C[C@@H](C)C[C@H](OC)[C@H](O)[C@@H](C)/C=C(\C)[C@@H]1OC(N)=O)C2=O [Alvespimycin] (10 nM) | 115 |

Test system: HCC1143
Assay: as above
Conditions: incubation time: 72 h
Method: as §1

| SMILES | normalised response [%] |
| --- | --- |
| CC(C)Cn1cnc2c(N)nc3ccccc3c21 [Imiquimod] (25 nM) | 107 |
| Cc1ccc(C(=O)N(CCCN)[C@@H](c2oc3cc(Cl)ccc3c(=O)c2Cc2ccccc2)C(C)C)cc1 (1 nM) | 103 |
| Clc1ccc(Nc2nnc(Cc3ccncc3)c3ccccc23)cc1 [Vatalanib] (100 nM) | 106 |
| Cc1ccc(C(=O)Nc2ccc(CN3CCN(C)CC3)c(C(F)(F)F)c2)cc1C#Cc1cnc2cccnn12 [Ponatinib] (10 nM) | 99.5 |
| N.N.[Cl][Pt][Cl] [Cisplatin] (10 nM) | 103 |
| COc1cc([C@@H]2c3cc4c(cc3[C@@H](O[C@@H]3O[C@@H]5CO[C@@H](C)O[C@H]5[C@H](O)[C@H]3O)[C@H]3COC(=O)[C@H]23)OCO4)cc(OC)c1O [Etoposide] (100 nM) | 100 |
| COc1cc2ncnc(Nc3ccc(F)c(Cl)c3)c2cc1NC(=O)/C=C/CN1CCCCC1 [Dacomitinib] (10 nM) | 102 |
| NC(=O)Nc1cc(-c2cccc(F)c2)sc1C(=O)N[C@H]1CCCNC1 [AZD7762] (10 nM) | 110 |
| CO[C@H]1/C=C\C=C(/C)C(=O)NC2=CC(=O)C(NCCN(C)C)=C(C[C@@H](C)C[C@H](OC)[C@H](O)[C@@H](C)/C=C(\C)[C@@H]1OC(N)=O)C2=O [Alvespimycin] (10 nM) | 99 |

Test system: HCC1599
Assay: as above
Conditions: incubation time: 72 h
Method: as §1

| SMILES | normalised response [%] |
| --- | --- |
| CC(C)Cn1cnc2c(N)nc3ccccc3c21 [Imiquimod] (25 nM) | 101 |
| Cc1ccc(C(=O)N(CCCN)[C@@H](c2oc3cc(Cl)ccc3c(=O)c2Cc2ccccc2)C(C)C)cc1 (1 nM) | 104 |
| Clc1ccc(Nc2nnc(Cc3ccncc3)c3ccccc23)cc1 [Vatalanib] (100 nM) | 109 |
| Cc1ccc(C(=O)Nc2ccc(CN3CCN(C)CC3)c(C(F)(F)F)c2)cc1C#Cc1cnc2cccnn12 [Ponatinib] (10 nM) | 89.4 |
| N.N.[Cl][Pt][Cl] [Cisplatin] (10 nM) | 104 |
| COc1cc([C@@H]2c3cc4c(cc3[C@@H](O[C@@H]3O[C@@H]5CO[C@@H](C)O[C@H]5[C@H](O)[C@H]3O)[C@H]3COC(=O)[C@H]23)OCO4)cc(OC)c1O [Etoposide] (100 nM) | 110 |
| COc1cc2ncnc(Nc3ccc(F)c(Cl)c3)c2cc1NC(=O)/C=C/CN1CCCCC1 [Dacomitinib] (10 nM) | 99.7 |
| NC(=O)Nc1cc(-c2cccc(F)c2)sc1C(=O)N[C@H]1CCCNC1 [AZD7762] (10 nM) | 91.3 |
| CO[C@H]1/C=C\C=C(/C)C(=O)NC2=CC(=O)C(NCCN(C)C)=C(C[C@@H](C)C[C@H](OC)[C@H](O)[C@@H](C)/C=C(\C)[C@@H]1OC(N)=O)C2=O [Alvespimycin] (10 nM) | 106 |

Test system: MDA-MB-436
Assay: as above
Conditions: incubation time: 72 h
Method: as §1

| SMILES | normalised response [%] |
| --- | --- |
| CC(C)Cn1cnc2c(N)nc3ccccc3c21 [Imiquimod] (25 nM) | 104 |
| Cc1ccc(C(=O)N(CCCN)[C@@H](c2oc3cc(Cl)ccc3c(=O)c2Cc2ccccc2)C(C)C)cc1 (1 nM) | 105 |
| Clc1ccc(Nc2nnc(Cc3ccncc3)c3ccccc23)cc1 [Vatalanib] (100 nM) | 111 |
| Cc1ccc(C(=O)Nc2ccc(CN3CCN(C)CC3)c(C(F)(F)F)c2)cc1C#Cc1cnc2cccnn12 [Ponatinib] (10 nM) | 109 |
| N.N.[Cl][Pt][Cl] [Cisplatin] (10 nM) | 103 |
| COc1cc([C@@H]2c3cc4c(cc3[C@@H](O[C@@H]3O[C@@H]5CO[C@@H](C)O[C@H]5[C@H](O)[C@H]3O)[C@H]3COC(=O)[C@H]23)OCO4)cc(OC)c1O [Etoposide] (100 nM) | 98.3 |
| COc1cc2ncnc(Nc3ccc(F)c(Cl)c3)c2cc1NC(=O)/C=C/CN1CCCCC1 [Dacomitinib] (10 nM) | 100 |
| NC(=O)Nc1cc(-c2cccc(F)c2)sc1C(=O)N[C@H]1CCCNC1 [AZD7762] (10 nM) | 104 |
| CO[C@H]1/C=C\C=C(/C)C(=O)NC2=CC(=O)C(NCCN(C)C)=C(C[C@@H](C)C[C@H](OC)[C@H](O)[C@@H](C)/C=C(\C)[C@@H]1OC(N)=O)C2=O [Alvespimycin] (10 nM) | 76.8 |

Test system: CAL-120
Assay: as above
Conditions: incubation time: 72 h
Method: as §1

| SMILES | normalised response [%] |
| --- | --- |
| CC(C)Cn1cnc2c(N)nc3ccccc3c21 [Imiquimod] (25 nM) | 101 |
| Cc1ccc(C(=O)N(CCCN)[C@@H](c2oc3cc(Cl)ccc3c(=O)c2Cc2ccccc2)C(C)C)cc1 (1 nM) | 102 |
| Clc1ccc(Nc2nnc(Cc3ccncc3)c3ccccc23)cc1 [Vatalanib] (100 nM) | 99.1 |
| Cc1ccc(C(=O)Nc2ccc(CN3CCN(C)CC3)c(C(F)(F)F)c2)cc1C#Cc1cnc2cccnn12 [Ponatinib] (10 nM) | 106 |
| N.N.[Cl][Pt][Cl] [Cisplatin] (10 nM) | 108 |
| COc1cc([C@@H]2c3cc4c(cc3[C@@H](O[C@@H]3O[C@@H]5CO[C@@H](C)O[C@H]5[C@H](O)[C@H]3O)[C@H]3COC(=O)[C@H]23)OCO4)cc(OC)c1O [Etoposide] (100 nM) | 102 |
| COc1cc2ncnc(Nc3ccc(F)c(Cl)c3)c2cc1NC(=O)/C=C/CN1CCCCC1 [Dacomitinib] (10 nM) | 100 |
| NC(=O)Nc1cc(-c2cccc(F)c2)sc1C(=O)N[C@H]1CCCNC1 [AZD7762] (10 nM) | 106 |
| CO[C@H]1/C=C\C=C(/C)C(=O)NC2=CC(=O)C(NCCN(C)C)=C(C[C@@H](C)C[C@H](OC)[C@H](O)[C@@H](C)/C=C(\C)[C@@H]1OC(N)=O)C2=O [Alvespimycin] (10 nM) | 106 |

Test system: BT-474
Assay: as above
Conditions: incubation time: 72 h
Method: as §1

| SMILES | normalised response [%] |
| --- | --- |
| CC(C)Cn1cnc2c(N)nc3ccccc3c21 [Imiquimod] (25 nM) | 104 |
| Cc1ccc(C(=O)N(CCCN)[C@@H](c2oc3cc(Cl)ccc3c(=O)c2Cc2ccccc2)C(C)C)cc1 (1 nM) | 95 |
| Clc1ccc(Nc2nnc(Cc3ccncc3)c3ccccc23)cc1 [Vatalanib] (100 nM) | 103 |
| Cc1ccc(C(=O)Nc2ccc(CN3CCN(C)CC3)c(C(F)(F)F)c2)cc1C#Cc1cnc2cccnn12 [Ponatinib] (10 nM) | 105 |
| N.N.[Cl][Pt][Cl] [Cisplatin] (10 nM) | 102 |
| COc1cc([C@@H]2c3cc4c(cc3[C@@H](O[C@@H]3O[C@@H]5CO[C@@H](C)O[C@H]5[C@H](O)[C@H]3O)[C@H]3COC(=O)[C@H]23)OCO4)cc(OC)c1O [Etoposide] (100 nM) | 99.9 |
| COc1cc2ncnc(Nc3ccc(F)c(Cl)c3)c2cc1NC(=O)/C=C/CN1CCCCC1 [Dacomitinib] (10 nM) | 100 |
| NC(=O)Nc1cc(-c2cccc(F)c2)sc1C(=O)N[C@H]1CCCNC1 [AZD7762] (10 nM) | 105 |
| CO[C@H]1/C=C\C=C(/C)C(=O)NC2=CC(=O)C(NCCN(C)C)=C(C[C@@H](C)C[C@H](OC)[C@H](O)[C@@H](C)/C=C(\C)[C@@H]1OC(N)=O)C2=O [Alvespimycin] (10 nM) | 104 |

Test system: CAL-85-1
Assay: as above
Conditions: incubation time: 72 h
Method: as §1

| SMILES | normalised response [%] |
| --- | --- |
| CC(C)Cn1cnc2c(N)nc3ccccc3c21 [Imiquimod] (25 nM) | 99.9 |
| Cc1ccc(C(=O)N(CCCN)[C@@H](c2oc3cc(Cl)ccc3c(=O)c2Cc2ccccc2)C(C)C)cc1 (1 nM) | 107 |
| Clc1ccc(Nc2nnc(Cc3ccncc3)c3ccccc23)cc1 [Vatalanib] (100 nM) | 103 |
| Cc1ccc(C(=O)Nc2ccc(CN3CCN(C)CC3)c(C(F)(F)F)c2)cc1C#Cc1cnc2cccnn12 [Ponatinib] (10 nM) | 99.5 |
| N.N.[Cl][Pt][Cl] [Cisplatin] (10 nM) | 94.7 |
